Results reported in the NIST ThermoML archive (doi:10.1021/je400272k).
± gives the expanded uncertainty stated by the source.

Test: wn = mass fraction of the nth substance listed
Details: Liquid, Vibrating tube method

CCCC[N+](CCCC)(CCCC)CCCC.[Br-] [tetrabutylammonium bromide] + O
mass density [kg/m3]
Details | 283.15 K | 285.15 K | 288.15 K | 291.15 K | 293.15 K | 298.15 K | 303.15 K
100 kPa, w1 = 0.1 | 1008.7 ± 0.6 | 1008.3 ± 0.6 | 1007.6 ± 0.6 | 1006.7 ± 0.6 | 1006.2 ± 0.6 | 1004.9 ± 0.6 | 1003.2 ± 0.6
100 kPa, w1 = 0.14 | 1012.9 ± 0.6 | 1012.6 ± 0.6 | 1011.6 ± 0.6 | 1010.9 ± 0.6 | 1010 ± 0.6 | 1008.4 ± 0.6 | 1006.3 ± 0.6
100 kPa, w1 = 0.2 | 1019.9 ± 0.6 | 1019.3 ± 0.6 | 1018.1 ± 0.6 | 1017 ± 0.6 | 1016.3 ± 0.6 | 1014.2 ± 0.6 | 1011.9 ± 0.6
100 kPa, w1 = 0.3 | – | – | 1029 ± 0.7 | 1027.4 ± 0.6 | 1026.3 ± 0.6 | 1023.7 ± 0.6 | 1020.7 ± 0.6
100 kPa, w1 = 0.4 | – | – | 1038.5 ± 0.7 | 1036.7 ± 0.7 | 1035.3 ± 0.7 | 1031.9 ± 0.7 | 1028.6 ± 0.7
1000 kPa, w1 = 0.1 | – | – | 1008 ± 0.6 | 1007.1 ± 0.6 | 1006.7 ± 0.6 | 1005.3 ± 0.6 | 1003.7 ± 0.6
1000 kPa, w1 = 0.14 | – | – | 1012.1 ± 0.6 | 1011.2 ± 0.6 | 1010.4 ± 0.6 | 1008.7 ± 0.6 | 1006.6 ± 0.6
1000 kPa, w1 = 0.2 | – | – | 1018.6 ± 0.6 | 1017.4 ± 0.6 | 1016.7 ± 0.6 | 1014.5 ± 0.6 | 1012.4 ± 0.6
1000 kPa, w1 = 0.3 | – | – | 1029.4 ± 0.7 | 1027.7 ± 0.7 | 1026.8 ± 0.6 | 1024 ± 0.6 | 1021.2 ± 0.6
1000 kPa, w1 = 0.4 | – | – | 1039 ± 0.7 | 1037 ± 0.7 | 1035.7 ± 0.7 | 1032.3 ± 0.7 | 1029.2 ± 0.7
2000 kPa, w1 = 0.1 | – | – | 1008.4 ± 0.6 | 1007.6 ± 0.6 | 1007 ± 0.6 | 1005.7 ± 0.6 | 1004.1 ± 0.6
2000 kPa, w1 = 0.14 | – | – | 1012.5 ± 0.6 | 1011.6 ± 0.6 | 1010.8 ± 0.6 | 1009.1 ± 0.6 | 1007 ± 0.6
2000 kPa, w1 = 0.2 | – | – | 1019 ± 0.6 | 1017.8 ± 0.6 | 1017 ± 0.6 | 1014.9 ± 0.6 | 1012.8 ± 0.6
2000 kPa, w1 = 0.3 | – | – | 1029.7 ± 0.7 | 1028.1 ± 0.7 | 1027.1 ± 0.7 | 1024.4 ± 0.6 | 1021.6 ± 0.6
2000 kPa, w1 = 0.4 | – | – | 1039.4 ± 0.7 | 1037.4 ± 0.7 | 1036 ± 0.7 | 1032.7 ± 0.7 | 1029.5 ± 0.7
3000 kPa, w1 = 0.1 | – | – | 1008.9 ± 0.6 | 1008 ± 0.6 | 1007.5 ± 0.6 | 1006.1 ± 0.6 | 1004.5 ± 0.6
3000 kPa, w1 = 0.14 | – | – | 1012.9 ± 0.6 | 1012 ± 0.6 | 1011.2 ± 0.6 | 1009.5 ± 0.6 | 1007.4 ± 0.6
3000 kPa, w1 = 0.2 | – | – | 1019.4 ± 0.6 | 1018.2 ± 0.6 | 1017.5 ± 0.6 | 1015.3 ± 0.6 | 1013.2 ± 0.6
3000 kPa, w1 = 0.3 | – | – | 1030.1 ± 0.7 | 1028.5 ± 0.7 | 1027.5 ± 0.7 | 1024.8 ± 0.6 | 1022 ± 0.6
3000 kPa, w1 = 0.4 | – | – | 1039.7 ± 0.7 | 1037.8 ± 0.7 | 1036.4 ± 0.7 | 1033 ± 0.7 | 1029.9 ± 0.7
4000 kPa, w1 = 0.1 | – | – | 1009.2 ± 0.6 | 1008.4 ± 0.6 | 1007.9 ± 0.6 | 1006.5 ± 0.6 | 1005 ± 0.6
4000 kPa, w1 = 0.14 | – | – | 1013.3 ± 0.6 | 1012.4 ± 0.6 | 1011.6 ± 0.6 | 1009.9 ± 0.6 | 1007.7 ± 0.6
4000 kPa, w1 = 0.2 | – | – | 1019.7 ± 0.6 | 1018.6 ± 0.6 | 1017.8 ± 0.6 | 1015.7 ± 0.6 | 1013.6 ± 0.6
4000 kPa, w1 = 0.3 | – | – | 1030.4 ± 0.7 | 1028.8 ± 0.7 | 1027.9 ± 0.7 | 1025.1 ± 0.6 | 1022.4 ± 0.6
4000 kPa, w1 = 0.4 | – | – | 1040.1 ± 0.7 | 1038.1 ± 0.7 | 1036.8 ± 0.7 | 1033.3 ± 0.7 | 1030.3 ± 0.7
5000 kPa, w1 = 0.1 | – | – | 1009.7 ± 0.6 | 1008.7 ± 0.6 | 1008.3 ± 0.6 | 1006.9 ± 0.6 | 1005.4 ± 0.6
5000 kPa, w1 = 0.14 | – | – | 1013.7 ± 0.6 | 1012.7 ± 0.6 | 1012.1 ± 0.6 | 1010.3 ± 0.6 | 1008.1 ± 0.6
5000 kPa, w1 = 0.2 | – | – | 1020.1 ± 0.6 | 1018.8 ± 0.6 | 1018.2 ± 0.6 | 1016.1 ± 0.6 | 1014 ± 0.6
5000 kPa, w1 = 0.3 | – | – | 1030.7 ± 0.7 | 1029.1 ± 0.7 | 1028.2 ± 0.7 | 1025.5 ± 0.6 | 1022.7 ± 0.6
5000 kPa, w1 = 0.4 | – | – | 1040.4 ± 0.7 | 1038.4 ± 0.7 | 1037.1 ± 0.7 | 1033.7 ± 0.7 | 1030.7 ± 0.7
